Measurements published in patent publication US20250206727A1, “HETEROCYCLIC SUBSTITUTED AROMATIC COMPOUND, PREPARATION METHOD THEREFOR, HERBICIDAL COMPOSITION AND APPLICATION” (QINGDAO KINGAGROOT CHEMICAL COMPOUND CO., LTD., priority 2022, published 2025).

Legend:
Assay in all cases: Post-emergence test on weeds (greenhouse, spray at 2-3 leaf stage)
Format in all cases: in vivo
Design in all cases: key: Level 10: completely dead; Level 9: growth control rate greater than or equal to 90% and less than 100%; Level 8: growth control rate greater than or equal to 80% and less than 90%; Level 7: growth control rate greater than or equal to 70% and less than 80%; Level 6: growth control rate greater than or equal to 60% and less than 70%; Level 5: growth control rate greater than or equal to 50% and less than 60%; Level 4: growth control rate greater than or equal to 40% and less than 50%; Level 3: growth control rate greater than or equal to 30% and less than 40%; Level 2: growth control rate greater than or equal to 20% and less than 30%; Level 1: growth control rate less than 20%; Level 0: no effect
Details in all cases: 60 g a.i./ha, 3 weeks after application
Abutilon theophrasti = test system: Abutilon theophrasti
Method in brief: (§1)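 Pot-grown plants were spray-tower treated two weeks after sowing with compound in acetone/Tween 80 plus 1.5 L/ha methyl oleate EC, at rates from 500 to 7.5 g a.i./ha. Fresh-weight growth control was scored 0–10 after 3 weeks in the greenhouse, averaged over triplicates.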

Amaranthus retroflexus = test system: Amaranthus retroflexus
Method in brief: as §1

Digitaria sanguinalis = test system: Digitaria sanguinalis
Method in brief: as §1

Echinochloa crus-galli = test system: Echinochloa crus-galli
Method in brief: as §1

Setaria viridis = test system: Setaria viridis
Method in brief: as §1

Veronica polita = test system: Veronica polita
Method in brief: as §1

CC(C)OC(=O)C1(C)ON=C(c2cc(-c3ncc(C(F)(F)F)cc3Cl)c(F)cc2Cl)O1 (stereo not drawn) [Compound 88]
10: activity level (fresh weight growth control rate), Abutilon theophrasti (Abutilon theophrasti) | activity level (fresh weight growth control rate), Amaranthus retroflexus (Amaranthus retroflexus) | activity level (fresh weight growth control rate), Digitaria sanguinalis (Digitaria sanguinalis) | activity level (fresh weight growth control rate), Echinochloa crus-galli (Echinochloa crus-galli) | activity level (fresh weight growth control rate), Setaria viridis (Setaria viridis) | activity level (fresh weight growth control rate), Veronica polita (Veronica polita)
